In PubChem BioAssay AID198 (DTP/NCI, 2004):
Toxic doses and inconclusive results are not listed. How the source made its calls: active means survival T/C of 150% or more; inactive means T/C below 125% in these data.

Test system: B16 melanoma ip, C57BL/6 mice, median survival T/C
Test: NCI In Vivo Anticancer Drug Screen. Data for tumor model B16 Melanoma (intraperitoneal) in C57BL/6 mice
Details: endpoint: median survival time, schedule: Q01DX009 (ip), vehicle: saline, higher = longer survival
Description: The antitumor activity of compounds was measured in mice bearing transplantable tumors. Survival or tumor size were measured and the results are expressed as the measurement made in the treated group (T) divided by the measurement made in the vehicle treated control group (C). The tumor model used in this assay is B16 Melanoma (intraperitoneal) in C57BL/6 mice

Measured: T/C

Nc1nc2n[nH]nc2c(=O)[nH]1
inactive: dose: 25.0 mg/kg/injection 100 % of control | dose: 50.0 mg/kg/injection 103 % of control | dose: 100.0 mg/kg/injection 86 % of control | dose: 200.0 mg/kg/injection 90 % of control

COc1c(C)c2c(c(O)c1C/C=C(\C)CCC(=O)O)C(=O)OC2
inactive: dose: 25.0 mg/kg/injection 106 % of control | dose: 50.0 mg/kg/injection 113 % of control | dose: 100.0 mg/kg/injection 110 % of control | dose: 200.0 mg/kg/injection 106 % of control
